Read-outs that look alike come from different tables or passages of the source.
What was measured:
[1] = Metabolic stability in vitro, rat liver microsomes (calculation of Fmax); type: in vitro ADME
Procedure: (§1) The metabolic stability of test compounds in vitro was determined by incubating them at 1 μM with a suspension liver microsomes in 100 mM phosphate buffer, pH7.4 (NaH2PO4×H2O+Na2HPO4×2H2O) at a protein concentration of 0.5 mg/mL and at 37° C. The reaction was activated by adding a co-factor mix containing 1.2 mg NADP, 3 IU glucose-6-phosphate dehydrogenase, 14.6 mg glucose-6-phosphate and 4.9 mg MgCl2 in phosphate buffer, pH 7.4. Organic solvent in the incubations was limited to <0.2% dimethylsulfoxide (DMSO) and <1% methanol. During incubation, the microsomal suspensions were continuously shaken and aliquots were taken at 2, 8, 16, 30, 45 and 60 min, to which equal volumes of cold methanol were immediately added. Samples were frozen at −20° C. over night, subsequently centrifuged for 15 minutes at 3000 rpm and the supernatant was analyzed with an Agilent 1200 HPLC-system with LCMS/MS detection.
(§2) The half-life of a test compound was determined from the concentration-time plot. From the half-life the intrinsic clearances were calculated. Together with the additional parameters liver blood flow, specific liver weight and microsomal protein content the hepatic in vivo blood clearance (CL) and the maximal oral bioavailability (Fmax) were calculated for the different species. The following parameter values were used: Liver blood flow—1.3 L/h/kg (human), 2.1 L/h/kg (dog), 4.2 L/h/kg (rat); specific liver weight—21 g/kg (human), 39 g/kg (dog), 32 g/kg (rat); microsomal protein content—40 mg/g.
(§3) With the described assay only phase-I metabolism of microsomes is reflected, e.g. typically oxidoreductive reactions by cytochrome P450 enzymes and flavin mono-oxygenases (FMO) and hydrolytic reactions by esterases (esters and amides).

[2] = system: HeLa-MaTu-ADR, multidrug-resistant human cervical carcinoma cells; experiment: Proliferation assay, HeLa-MaTu-ADR cells (crystal violet); type: cell-based; details: read-out: IC50 determined in a HeLa-MaTu-ADR cell proliferation assay
Procedure: (§4) Cultivated tumor cells (MCF7, hormone dependent human mammary carcinoma cells, ATCC HTB22; NCI-H460, human non-small cell lung carcinoma cells, ATCC HTB-177; DU 145, hormone-independent human prostate carcinoma cells, ATCC HTB-81; HeLa-MaTu, human cervical carcinoma cells, EPO-GmbH, Berlin; HeLa-MaTu-ADR, multidrug-resistant human cervical carcinoma cells, EPO-GmbH, Berlin; HeLa human cervical tumor cells, ATCC CCL-2; B16F10 mouse melanoma cells, ATCC CRL-6475) were plated at a density of 5000 cells/well (MCF7, DU145, HeLa-MaTu-ADR), 3000 cells/well (NCI-H460, HeLa-MaTu, HeLa), or 1000 cells/well (B16F10) in a 96-well multititer plate in 200 μl of their respective growth medium supplemented 10% fetal calf serum. After 24 hours, the cells of one plate (zero-point plate) were stained with crystal violet (see below), while the medium of the other plates was replaced by fresh culture medium (200 μl), to which the test substances were added in various concentrations (0 μM, as well as in the range of 0.01-30 μM; the final concentration of the solvent dimethyl sulfoxide was 0.5%). The cells were incubated for 4 days in the presence of test substances. Cell proliferation was determined by staining the cells with crystal violet: the cells were fixed by adding 20 μl/measuring point of an 11% glutaric aldehyde solution for 15 minutes at room temperature. After three washing cycles of the fixed cells with water, the plates were dried at room temperature. The cells were stained by adding 100 μl/measuring point of a 0.1% crystal violet solution (pH 3.0). After three washing cycles of the stained cells with water, the plates were dried at room temperature. The dye was dissolved by adding 100 μl/measuring point of a 10% acetic acid solution. The extinction was determined by photometry at a wavelength of 595 nm. The change of cell number, in percent, was calculated by normalization of the measured values to the extinction values of the zero-point plate (=0%) and the extinction of the untreated (0 μm) cells (=100%). The IC50 values were determined by means of a 4 parameter fit.

[3] = Solubility of compound A1 at 25° C. in different solvents; type: physicochemical
[4] = Metabolic stability in vitro, human liver microsomes (calculation of Fmax); type: in vitro ADME; details: for Human liver microsomes; Fmax [%]: 1 μM; for calculated maximal oral bioavailability (Fmax) at 1 μM: pH 7.4, determined by means of human liver microsomes, read-out: maximum oral bioavailability (Fmax) in human
Procedure: as §1, §2, §3

[5] = Metabolic stability in vitro, dog liver microsomes (calculation of Fmax); type: in vitro ADME
Procedure: as §1, §2, §3

[6] = system: HeLa human cervical tumor cells; experiment: Proliferation assay, HeLa cells (crystal violet); type: cell-based
Procedure: as §4

[7] = molecular target: T1, human kinase Mps-1 (Homo sapiens, UniProt P33981); experiment: Mps-1 kinase assay (TR-FRET) with 10 μM ATP; type: biochemical
T1 construct: N-terminally GST-tagged human full length recombinant Mps-1 kinase; GST (N); purchased Invitrogen, Karslruhe, Germany PV4071
T1 sequence (P33981 1-857): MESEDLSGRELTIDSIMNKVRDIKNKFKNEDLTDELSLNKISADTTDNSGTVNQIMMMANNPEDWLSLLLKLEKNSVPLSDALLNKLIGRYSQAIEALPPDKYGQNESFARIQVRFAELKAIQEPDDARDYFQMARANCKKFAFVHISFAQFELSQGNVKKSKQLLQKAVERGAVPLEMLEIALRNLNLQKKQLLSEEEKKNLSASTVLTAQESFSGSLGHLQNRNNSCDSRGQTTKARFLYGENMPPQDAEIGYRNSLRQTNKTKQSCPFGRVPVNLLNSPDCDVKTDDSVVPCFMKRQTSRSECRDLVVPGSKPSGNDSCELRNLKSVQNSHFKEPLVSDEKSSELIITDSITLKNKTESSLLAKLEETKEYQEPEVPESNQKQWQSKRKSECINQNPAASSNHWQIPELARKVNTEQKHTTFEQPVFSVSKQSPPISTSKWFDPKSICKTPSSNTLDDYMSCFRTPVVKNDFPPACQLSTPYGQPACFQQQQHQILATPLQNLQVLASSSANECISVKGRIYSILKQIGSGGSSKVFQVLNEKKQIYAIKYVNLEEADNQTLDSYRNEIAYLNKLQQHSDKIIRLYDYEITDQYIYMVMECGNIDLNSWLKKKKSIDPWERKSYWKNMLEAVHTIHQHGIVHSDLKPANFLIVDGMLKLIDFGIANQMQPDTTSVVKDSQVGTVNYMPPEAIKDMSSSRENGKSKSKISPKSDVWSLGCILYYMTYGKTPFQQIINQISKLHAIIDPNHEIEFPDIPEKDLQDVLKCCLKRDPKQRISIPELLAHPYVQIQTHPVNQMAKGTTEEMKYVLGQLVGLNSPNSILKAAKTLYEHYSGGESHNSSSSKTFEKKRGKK

[8] = molecular target: T1, human kinase Mps-1; experiment: Mps-1 kinase assay (TR-FRET) with 2 mM ATP; type: biochemical
[9] = comparison table with comparative examples
[10] = 96 h, HeLa cells, 4 days, read-out: Inhibition of cell proliferation, cell Line: HeLa IC50
[11] = HeLa, comparison table with comparative examples, read-out: Inhibition of cell proli-feration, cell line: HeLa, IC50
[12] = HeLa, read-out: IC50 in a HeLa cell proliferation assay
[13] = IC50 in an Mps-1 kinase assay with a concentration of 10 μM ATP
[14] = Mps-1 Inhibition, IC50 (Assay with 10 μM ATP), comparison table with comparative examples
[15] = Mps-1 Inhibition, IC50 in M (Assay with 10 μM ATP)
[16] = IC50 in an Mps-1 kinase assay with a concentration of 2 mM ATP
[17] = Mps-1 Inhibition, IC50 in M (Assay with 2 mM ATP)

SMILES	Rat liver microsomes; Fmax [%] [1, 9]	Rat liver microsomes; Fmax [%] ([1]; rat liver microsomes, 1 μM)	IC50 [2]	Human liver microsomes; Fmax [%] [4]	calculated maximal oral bioavailability (Fmax) at 1 μM [4]	Dog liver microsomes; Fmax [%] [5, 9]	Dog liver microsomes; Fmax [%] ([5]; dog liver microsomes, 1 μM)	IC50 [6, 10]	IC50 [6, 11]	IC50 [6, 12]	IC50 [7, 13]	IC50 [7, 14]	IC50 [7, 15]	IC50 [8, 16]	IC50 [8, 17]	also measured
COc1cc(S(C)(=O)=O)ccc1Nc1nc2ccc(-c3ccc(NC(=O)[C@H](C)c4ccc(F)cc4)cc3)cn2n1 [Compound A1, (2R)-2-(4-fluorophenyl)-N-[4-(2-{[2-methoxy-4-(methylsulfonyl)phenyl]-amino}[1,2,4]triazolo[1,5-α]pyridin-6-yl)phenyl]propanamide]	92%	92%	< 10 µM	92%	> 60%	64%	64%	< 400 nM	< 400 nM	< 400 nM						dissolved amount in mg/100 mL solution ([3]; 0.1M HCl in water): <0.1 mg/100 mL; dissolved amount in mg/100 mL solution ([3]; aqueous solution, acetate buffer pH 4.5): <0.1 mg/100 mL; dissolved amount in mg/100 mL solution ([3]; aqueous solution, phopshate buffer pH 7): <0.1 mg/100 mL; dissolved amount in mg/100 mL solution ([3]; aqueous solution, phopshate buffer pH 8): <0.1 mg/100 mL; dissolved amount in mg/100 mL solution ([3]; solvent acetone): 1518.3 mg/100 mL; dissolved amount in mg/100 mL solution ([3]; solvent acetonitrile): 350.2 mg/100 mL; dissolved amount in mg/100 mL solution ([3]; solvent ethanol): 45.7 mg/100 mL; dissolved amount in mg/100 mL solution ([3]; solvent water): <0.1 mg/100 mL
C[C@@H](C(=O)Nc1ccc(-c2ccc3nc(Nc4ccc(S(C)(=O)=O)cc4OCC(F)(F)F)nn3c2)cc1)c1ccc(F)cc1 [Compound A2, (2R)-2-(4-fluorophenyl)-N-[4-(2-{[4-(methylsulfonyl)-2-(2,2,2-trifluoro-ethoxy)phenyl]amino}[1,2,4]triazolo[1,5-α]pyridin-6-yl)phenyl]-propanamide]	93%	93%	< 10 µM	>95%	> 60%	55%	55%	< 200 nM	< 200 nM	< 400 nM	≤ 1 nM	< 1 nM	< 1 nM	< 2 nM	< 1 nM	
COc1cc(C(=O)N2CCC2)ccc1Nc1nc2ccc(-c3ccc(NC(=O)[C@H](C)c4ccc(F)cc4)cc3)cn2n1 [Compound A4, (2R)-N-[4-(2-{[4-(azetidin-1-ylcarbonyl)-2-methoxyphenyl]amino}[1,2,4]-triazolo[1,5-α]pyridin-6-yl)phenyl]-2-(4-fluorophenyl)propanamide]	74%	74%	< 10 µM	62%	> 60%	75%	75%	< 100 nM	< 100 nM	< 400 nM	≤ 1 nM	< 1 nM	< 1 nM	< 2 nM	< 1 nM	
C[C@@H](C(=O)Nc1ccc(-c2ccc3nc(Nc4ccc(C(=O)N5CC(F)C5)cc4OCC(F)(F)F)nn3c2)cc1)c1ccc(F)cc1 [Compound A5, (2R)-N-{4-[2-({4-[(3-fluoroazetidin-1-yl)carbonyl]-2-(2,2,2-trifluoroethoxy)phenyl}amino)[1,2,4]triazolo[1,5-α]pyridin-6-yl]phenyl}-2-(4-fluorophenyl)propanamide]	89%	89%	< 10 µM	69%	> 60%	57%	57%	< 100 nM	< 100 nM	< 400 nM	≤ 1 nM	< 1 nM	< 1 nM	< 2 nM	< 1 nM	

Source: patent US9586958B2, “Prodrug derivatives of substituted triazolopyridines” (BAYER PHARMA AKTIENGESELLSCHAFT, priority 2013, dated 2017)
